“Also recorded” adds a separate entry of the source. Where two headings read alike, the source gives them in different places. Each block holds one molecule with its values, some of them ahead of it. Ends that are not written are not given here.
Columns and labels:
[1] = target: T1, H-2 I-A^b (Mus musculus, UniProt P14434+P14483); experiment: I-A^b binding affinity, competitive inhibition assay with purified MHC and radio-labeled ligand
T1 sequence (P14434 24-256): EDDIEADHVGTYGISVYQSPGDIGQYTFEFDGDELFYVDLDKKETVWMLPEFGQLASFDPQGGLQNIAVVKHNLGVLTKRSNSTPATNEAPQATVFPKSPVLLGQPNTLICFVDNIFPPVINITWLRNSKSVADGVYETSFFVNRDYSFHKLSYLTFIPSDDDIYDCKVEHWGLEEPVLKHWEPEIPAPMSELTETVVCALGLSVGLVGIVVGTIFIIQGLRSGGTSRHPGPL
T1 sequence (P14483 28-265): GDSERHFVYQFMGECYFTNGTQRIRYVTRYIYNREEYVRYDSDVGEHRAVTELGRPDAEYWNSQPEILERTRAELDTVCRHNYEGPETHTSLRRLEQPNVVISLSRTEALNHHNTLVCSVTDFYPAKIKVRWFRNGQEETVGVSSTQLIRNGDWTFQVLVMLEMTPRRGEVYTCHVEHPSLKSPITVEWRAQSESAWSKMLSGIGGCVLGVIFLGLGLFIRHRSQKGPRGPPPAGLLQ
Description: We measured I-A^b binding affinity using a classical competitive inhibition assay utilizing purified MHC and high affinity radio-labeled I-A^b ligands ([39]). Their ability to displace the radio-labeled I-A^b ligand was measured, and an inhibitory concentration required to displace 50% of the radio-labeled ligand (IC50) was determined.
A peptide can only be recognized by a CD4^+ helper T-cell if it is bound to MHC class II. Because Apoe^−/− mice are on a C57B/6 background, candidate epitopes must be able to bind to the Class II allele, I-A^b. Previously, it has been shown that I-A^b binding motifs can be predicted using algorithms based on the number of anchor residues and hydrophobicity ([36]–[38]). […] The binding affinity is reflected by the amount of peptide, in […], needed to inhibit binding of a standardized radio-labeled peptide by 50% (the IC50) ([39]).

[2] = test system: Apoe^−/− mice; experiment: Aortic root plaque quantification (Oil Red O) after 1× CFA + 4× IFA immunization; type: in vivo, mouse; conditions: female Apoe^−/− mice, 1× CFA + 4× IFA scheme, WD 13 weeks; vs adjuvant-only mice; N = 5
Source text: Eight-week-old female Apoe^−/− mice on C57BL/6 background were purchased from Jackson Laboratories (Bar Harbor, ME, USA). Mice were housed in a specific pathogen free environment and fed chow diet until 10 weeks of age. At 10 weeks of age, mice were started on WD (adjusted calories diet with 42% from fat, Harlan Labs Cat #: TD.88137, CA, USA) and remained on WD until sacrifice at 23 weeks old.
Aortic root sections were examined as follows. Hearts were harvested, placed in Optimal Cutting Temperature medium (OCT, Electron Microscopy Sciences, Hatfield, PA, USA), and frozen at −80°C. Beginning at the first appearance of the tri-leaflet aortic valve, successive 5 μm transverse sections were made for a distance of 100 μm. From these, we analyzed every other section, for a total of 10 sections per root. Sections were then stained with Oil Red O and counter-stained with hematoxylin. Extent of atherosclerosis was then determined as the area involved on each section. To measure en face lesion formation, the whole aorta was carefully cleaned in situ and then the whole aorta pinned out after paraformaldehyde incubation at RT for at least 2 h. Staining for atherosclerotic plaque was performed by incubating samples in Sudan IV. Quantification was performed using ImagePro software (Media Cybernetics, Rockville, MD, USA). […]

[3] = test system: Apoe^−/− mice; experiment: Antibody titers in plasma by chemiluminescent enzyme immunoassay; type: in vivo, mouse; conditions: pooled plasma, chemiluminescent ELISA, 1:250 dilution
Description: Antibody titers in plasma were determined by chemiluminescent enzyme immunoassay as previously described ([41]). In brief, white “U” bottom plates (Thermo Lab systems, USA) were coated with various antigens at 5 μg/mL in PBS for overnight incubation. Following blocking with 1% BSA-TBS serum was added in increasing dilutions and incubated at RT for 90 min. Bound antibodies levels were detected using appropriate alkaline phosphatase-conjugated secondary antibodies and a 50% aqueous solution of LumiPhos 530 (Lumigen, USA). Data are expressed as relative light units counted per 100 ms (RLU/100 ms).

[4] = test system: mice; conditions: human ApoB-100 B-cell epitope; cited from earlier work
Source text: Several studies have reported a protective effect of vaccination with LDL, or ox-LDL, on the development of atherosclerotic plaque ([23]–[25]). However, the mechanism by which these immunizations convey atheroprotection is an ongoing area of research. […] This was initially a promising hypothesis which subsequently led to the search for atheroprotective B-cell (antibody) epitopes. The discovery of such epitopes was first reported by ...

[5] = target: T1, H-2 I-A^b; conditions: known T-cell epitope for comparison; cited from earlier work
Source text: Because Apoe^−/− mice are on a C57B/6 background, candidate epitopes must be able to bind to the Class II allele, I-A^b. Previously, it has been shown that I-A^b binding motifs can be predicted using algorithms based on the number of anchor residues and hydrophobicity ([36]–[38]).

[6] = target: I-Ab (Mus musculus, UniProt P14434+P14483); conditions: MHC Class II allele of Apoe^−/− and LDL-R^−/− mice; cited from earlier work
Source text: More recently, researchers have sought to describe the changes in cellular (rather than humoral) immunity that may result from immunization with B-cell epitopes from ApoB-100. Several recent papers have reported an increase in FoxP3^+ expressing TREGS in secondary lymphoid organs [spleens ([32]) and lymph nodes ([33])] after immunization of mice with P210. […] It is not known whether these TREGS are causally related to the atheroprotection that is observed.

[7] = target: H-2 I-A^b (mouse); experiment: radioligand binding; competitive inhibition assay: peptides displace a high affinity radio-labeled I-A^b ligand from purified MHC; (label) < (MHC) and IC50 ≥ (MHC), so that IC50 values approximate the true Kd
[8] = Table 1, displacement of 50% of radio-labeled I-A^b ligand, purified MHC, IC50 approximates Kd
[9] = Table 2, ApoB3501–3516- and ApoB978–993-related overlapping peptides, read-out: H-2 I-Ab (IC50 nM)

IC50 [1, 8]: 1300 nM
Molecule: NNYALFLSPRAQQAS

IC50 [1, 9]: 172 nM
Molecule: CC(C)C[C@H](NC(=O)[C@H](Cc1ccc(O)cc1)NC(=O)[C@@H](NC(=O)[C@H](CC(N)=O)NC(=O)[C@H](C)NC(=O)[C@H](CCC(=O)O)NC(=O)[C@H](CC(N)=O)NC(=O)[C@H](C)NC(=O)[C@@H](NC(=O)[C@H](CO)NC(=O)CNC(=O)[C@@H](N)CO)C(C)C)C(C)C)C(=O)N[C@@H](CC(N)=O)C(=O)N[C@@H](CO)C(=O)N[C@@H](CCCCN)C(=O)NCC(=O)O

IC50 [1, 9]: 1260 nM
Molecule: SSTESASYYPLTGDTR

antibody titers to ApoB3501–3516 or ApoB978–993 in mice immunized with irrelevant peptide [3]: no antibody titers
IgG (IgG1, IgG2c) response to the immunizing peptide ([3]; vs 1× CFA + 4× IFA group): predominantly IgG2c response
Molecule: MEVGWYRSPFSRVVHLYRNGK [MOG35–55, irrelevant control peptide, myelin oligodendrocyte glycoprotein 35–55]
reduction in aortic sinus (aortic root) plaque development, ORO staining [2]: no significant decrease

IC50 [1, 9]: 17 nM
Molecule: C[C@H](NC(=O)CNC(=O)[C@@H](NC(=O)[C@@H](N)[C@@H](C)O)[C@@H](C)O)C(=O)N[C@@H](Cc1ccc(O)cc1)C(=O)N[C@@H](CO)C(=O)N[C@@H](CC(N)=O)C(=O)N[C@@H](C)C(=O)N[C@@H](CO)C(=O)N[C@@H](CO)C(=O)N[C@H](C(=O)N[C@@H](CCC(=O)O)C(=O)N[C@@H](CO)C(=O)N[C@@H](C)C(=O)N[C@@H](CO)C(=O)N[C@@H](Cc1ccc(O)cc1)C(=O)O)[C@@H](C)O

Molecule: IALDDAKINFNEKLSQLQTY [Peptide P143]
atheroprotection after vaccination of mice [4]: 40–60%

IC50 [1, 9]: 6.8 nM
Molecule: CC(C)C[C@H](NC(=O)[C@H](Cc1ccccc1)NC(=O)[C@H](CO)NC(=O)[C@@H](N)CO)C(=O)N[C@@H](CO)C(=O)N[C@@H](CCC(N)=O)C(=O)N[C@@H](CCC(=O)O)C(=O)N[C@@H](Cc1ccc(O)cc1)C(=O)N[C@@H](CO)C(=O)NCC(=O)N[C@@H](CO)C(=O)N[C@H](C(=O)N[C@@H](C)C(=O)N[C@@H](CC(N)=O)C(=O)N[C@@H](CCC(=O)O)C(=O)N[C@@H](C)C(=O)O)C(C)C

IC50 [1, 8]: 22200 nM
Molecule: HLEYVSSELRKSLQV

Molecule: TRFKHLRKYTYNYEAESSS [Peptide P2]
atheroprotection after vaccination of mice [4]: 40–60%

Molecule: GWYRSPFSRVVHLY [MOG38–51]
IC50 [5]: 354 nM

Molecule: KTTKQSFDLSVKAQYKKNKH [Peptide P210]
binding to I-Ab [6]: does not bind; also recorded: not to bind to I-Ab
atheroprotection after vaccination of mice [4]: 40–60%

IC50 [1, 9]: 907 nM
Molecule: NVYLNSKGTRSSVRLQ

IC50 [1, 8]: 1370 nM
Molecule: CC(C)C[C@H](NC(=O)[C@H](C)NC(=O)[C@H](Cc1ccc(O)cc1)NC(=O)[C@H](CC(C)C)NC(=O)[C@@H](NC(=O)[C@H](C)NC(=O)[C@H](CCCNC(=N)N)NC(=O)[C@@H](N)CO)[C@@H](C)O)C(=O)N[C@@H](CO)C(=O)N[C@@H](Cc1c[nH]cn1)C(=O)N[C@@H](C)C(=O)N[C@H](C(=O)N[C@@H](CC(N)=O)C(=O)N[C@@H](CO)C(=O)N[C@@H](Cc1ccc(O)cc1)C(=O)O)C(C)C

IC50 [1, 9]: 1170 nM
Molecule: SFTKGNIKSSFLSQEY

H-2 I-A^b (IC50 nM) [1, 8]: ∞
Molecule: YENFAASNKLDVTFS

IC50 [7]: 1260 nM
Molecule: SSTESASYYPLTGDTR [ApoB_(978–993)-related peptide, position 985, 16 residues]

IC50 [7]: 1170 nM
Molecule: SFTKGNIKSSFLSQEY [ApoB_(3501–3516)-related peptide, position 3489, 16 residues]

IC50 [7]: 1300 nM
Molecule: NNYALFLSPRAQQAS [mouse ApoB-100 peptide 4505–4520]

IC50 [7]: 22200 nM
Molecule: HLEYVSSELRKSLQV [mouse ApoB-100 peptide 4054–4069]

IC50 [7]: 17 nM
Molecule: TTGAYSNASSTESASY [ApoB_(978–993)-related peptide, position 977, 16 residues]

IC50 [7]: 172 nM
Molecule: SGSVANEANVYLNSKG [ApoB_(3501–3516)-related peptide, position 3505, 16 residues]

IC50 [7]: 6.8 nM
Molecule: SSFLSQEYSGSVANEA [ApoB_(3501–3516)-related peptide, position 3497, 16 residues]

IC50 [7]: 1370 nM
Molecule: SRATLYALSHAVNSY [mouse ApoB-100 peptide 438–453]

IC50 [7]: 907 nM
Molecule: NVYLNSKGTRSSVRLQ [ApoB_(3501–3516)-related peptide, position 3513, 16 residues]

From publication PMC3873602, “Atheroprotective Vaccination with MHC-II Restricted Peptides from ApoB-100” (Frontiers in Immunology, 2013)
